Values after ≈ are worked out from the molar mass of the structure shown.
How the values were obtained:
Leishmania amazonensis [1] = test: Antileishmanial activity against Leishmania amazonensis axenic promastigotes assessed as inhibition of parasite growth incubated for 72 hrs by MTT colorimetric assay; format: functional, organism-based
Leishmania amazonensis [2] = test: Antileishmanial activity against Leishmania amazonensis axenic amastigote assessed as inhibition of parasite growth incubated for 72 hrs by MTT colorimetric assay; format: functional, organism-based
Leishmania infantum [3] = test: Antileishmanial activity against Leishmania infantum amastigotes assessed as inhibition of parasite growth; format: functional, organism-based
[4] = Inhibition of Leishmania braziliensis DNA topoisomerase I
DNA topoisomerase I = target: T1, DNA topoisomerase I (Leishmania donovani (strain BPK282A1), UniProt E9BRC0); test: Inhibition of Leishmania donovani DNA topoisomerase I
T1 sequence (E9BRC0 whole entry): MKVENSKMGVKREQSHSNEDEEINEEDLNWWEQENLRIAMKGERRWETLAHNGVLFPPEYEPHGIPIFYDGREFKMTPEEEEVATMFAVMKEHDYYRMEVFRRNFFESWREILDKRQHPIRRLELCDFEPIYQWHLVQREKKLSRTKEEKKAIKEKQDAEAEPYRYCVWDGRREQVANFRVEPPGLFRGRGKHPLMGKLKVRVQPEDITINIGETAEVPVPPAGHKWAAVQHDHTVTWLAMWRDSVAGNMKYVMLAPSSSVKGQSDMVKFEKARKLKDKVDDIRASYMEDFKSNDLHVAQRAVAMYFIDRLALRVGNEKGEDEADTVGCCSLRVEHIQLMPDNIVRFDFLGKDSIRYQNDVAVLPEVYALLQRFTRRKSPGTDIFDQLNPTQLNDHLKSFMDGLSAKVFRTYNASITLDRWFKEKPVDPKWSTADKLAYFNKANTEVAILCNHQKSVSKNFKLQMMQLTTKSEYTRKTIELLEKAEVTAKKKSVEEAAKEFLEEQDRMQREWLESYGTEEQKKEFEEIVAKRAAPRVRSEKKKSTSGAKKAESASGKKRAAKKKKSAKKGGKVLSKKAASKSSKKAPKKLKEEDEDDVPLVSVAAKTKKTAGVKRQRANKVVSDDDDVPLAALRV

[5] = Inhibition of recombinant rat liver arginase
Leishmania infantum [6] = test: Antileishmanial activity against GFP-expressing Leishmania infantum intracellular amastigotes infected in human THP-1 derived macrophage cells assessed as reduction in parasite viability measured for 72 hrs by resazurin/alamar blue fluorometric assay; format: functional, organism-based; conditions: THP-1, 72 h
Leishmania infantum [7] = test: Antileishmanial activity against Leishmania infantum infected in BALB/c mouse assessed as reduction of parasite burden in spleen at 2.5 mg/kg for 15 days relative to control; format: functional; parameters: scale not given: the % may be the effect or the level left; conditions: time 15 day
Leishmania infantum [8] = test: Inhibition of Leishmania infantum Arginase expressed in Escherichia coli BL21 (DE3) at 100 uM by enzymatic assay relative to control
Leishmania infantum [9] = test: Inhibition of Leishmania infantum promastigotes Arginase expressed in Escherichia coli BL21 (DE3) at 100 uM by enzymatic assay relative to control
Arginase = Arginase (Leishmania amazonensis, UniProt O96394); test: Inhibition of Leishmania amazonensis Arginase
Leishmania mexicana = test: Antileishmanial activity against Leishmania mexicana promastigotes MHOM/B2/62/BEL21 assessed as reduction in parasite growth by tryphan blue staining based analysis; format: functional, organism-based
Leishmania donovani [10] = test: Antileishmanial activity against Leishmania donovani promastigotes assessed as reduction in parasitic growth by MTT assay; format: functional, organism-based
Leishmania donovani [11] = test: Antileishmanial activity against Leishmania donovani amastigotes assessed as parasite growth inhibition incubated for 72 hrs by MTS assay; format: functional, organism-based
Leishmania major = test: Antileishmanial activity against Leishmania major amastigotes assessed as reduction in parasite growth incubated for 72 hrs by MTS assay; format: functional, organism-based
Leishmania donovani [12] = test: Antileishmanial activity against Leishmania donovani Ag83 amastigotes infected in BALB/c mouse macrophage assessed as cell viability incubated for 48 hrs by PI staining based analysis; format: functional, organism-based; conditions: Ag83, 48 h
Leishmania donovani [13] = test: Antileishmanial activity against Leishmania donovani promastigotes infected in golden hamster assessed as reduction in parasite load in spleen at 3 mg/kg administered twice per week for 4 weeks relative to control; format: functional; parameters: scale not given: the % may be the effect or the level left
Leishmania donovani [14] = test: Antileishmanial activity against Leishmania donovani MHOM/IN/83/AG83 promastigotes infected in BALB/c mouse assessed as reduction of parasite burden in spleen at 20 mg/kg per day relative to control; format: functional; parameters: scale not given: the % may be the effect or the level left

COc1cccc2c1C(=O)c1c(O)c3c(c(O)c1C2=O)C[C@@](O)(C(=O)CO)C[C@@H]3O[C@H]1C[C@H](N)[C@H](O)[C@H](C)O1 [DOXORUBICIN]
IC50 (Leishmania amazonensis [1]): 11.8 µM | IC50 (Leishmania amazonensis [2]): 12 µM

Fc1ccc(C2Nc3cccnc3[C@H]3c4ccccc4C[C@@H]23)c(F)c1 (some centres not stated)
IC50 (Leishmania infantum [3]): 0.67 µM

CCCCCC(C1=C(O)C(=O)c2ccccc2C1=O)C1=C(O)C(=O)c2ccccc2C1=O
IC50 [4]: 5.2 µM

CC(=O)Oc1ccc(OC(C)=O)c2cc3c(cc12)CCCC3(C)C
IC50 (DNA topoisomerase I): > 100 µM

Oc1cc(O)c2c(c1)O[C@@H](c1ccc(O)c(O)c1)[C@H](O)C2 [(-)-CATECHIN]
IC50 [5]: 0.77 µM

O=C(Cc1cccc2ccccc12)Nc1ccc([Se][Se]c2ccc(NC(=O)c3cccc4ccccc34)cc2)cc1
EC50 (Leishmania infantum [6]): 0.5 µM

O=C1c2ccccc2-c2c1c1ccc([N+](=O)[O-])cc1c(=O)n2CCCN1CCOCC1
Activity (Leishmania infantum [7]): 80%

O=C(O)c1cc(O)c(O)c(O)c1 [GALLIC ACID]
IC50 [5]: 3.8 µM

CCCCCCCCCCCCCCCC#CC(=O)O
IC50 (DNA topoisomerase I): 5.3 µM

COc1ccc(C(=O)/C=C/c2ccc([N+](=O)[O-])cc2)cc1
inhibition (Leishmania infantum [8]): 69.5% | inhibition (Leishmania infantum [9]): 70.4%

O=C(/C=C/c1ccc(F)cc1)c1ccccc1Cl
inhibition (Leishmania infantum [8]): 72.3% | inhibition (Leishmania infantum [9]): 74.1%

O=C(/C=C/c1ccc([N+](=O)[O-])cc1)c1ccc(Br)cc1
inhibition (Leishmania infantum [8]): 71.9% | inhibition (Leishmania infantum [9]): 55.2%

O=c1c(O)c(-c2ccc(O)c(O)c2)oc2cc(O)cc(O)c12 [QUERCETIN]
IC50 (Arginase): 4.3 µM

CCc1ccc2c(c1)C1c3ccccc3CC1C(c1ccccn1)N2 (configuration not stated)
IC50 (Leishmania mexicana): 1 µg/mL (≈ 3.06 µM)

COC(=O)c1ccc(C2OC(C)(C)C3CC(=O)C(C)C2C3)cc1 (configuration not stated)
IC50 (Leishmania donovani [10]): 4.9 µM

C/C=C(\CC[C@@H](C)[C@H]1CC[C@H]2[C@@H]3CC=C4C[C@@H](O)CC[C@]4(C)[C@H]3CC[C@]12C)C(C)C [FUCOSTEROL]
IC50 (Leishmania donovani [11]): 18.5 µg/mL (≈ 44.8 µM) | IC50 (Leishmania major): 19 µg/mL (≈ 46 µM)

O=c1cc(-c2ccc(O)c(O)c2)oc2cc(O)cc(O)c12 [LUTEOLIN]
IC50 (Arginase): 9 µM

O=C(O[C@@H]1Cc2c(O)cc(O)cc2O[C@@H]1c1cc(O)c(O)c(O)c1)c1cc(O)c(O)c(O)c1 [EPIGALOCATECHIN GALLATE]
IC50 [5]: 3.8 µM

Cc1cc2c(c(=O)[nH]1)C(=O)O/C2=C/c1ccccc1
EC50 (Leishmania donovani [12]): 1 µM

O=C(Nc1ccc(F)c(-c2ccn3c(N4CCOCC4)cnc3n2)c1)N1CCCC1 [GSK-3494245]
Activity (Leishmania donovani [13]): 95%

O=C(CC12CC3CC(CC(C3)C1)C2)Nc1ccc([Se][Se]c2ccc(NC(=O)C34CC5CC(CC(C5)C3)C4)cc2)cc1
EC50 (Leishmania infantum [6]): 1.19 µM

COc1ccc([C@@H]2Cc3cc(OC)c(O)cc3[C@H](CO)[C@@H]2COC2OCC(O)[C@@H](O)[C@H]2O)cc1O (some centres not stated)
EC50 (Leishmania donovani [12]): 1.84 µM

CCCCCCCCCCCCCCCCOP(=O)([O-])OCC[N+](C)(C)C [MILTEFOSINE]
IC50 (Leishmania mexicana): 2.18 µg/mL (≈ 5.35 µM)

COC[C@@H](Cc1ccc(OC)c(OC)c1)[C@@H](COC)Cc1cc(OC)c2c(c1)OCO2
EC50 (Leishmania donovani [12]): 1.26 µM

O=c1c(O)c(-c2ccc(O)c(O)c2)oc2cc(O)ccc12 [FISETIN]
IC50 (Arginase): 1.4 µM

C/C=C1/CN(C)[C@H]2Cc3c([nH]c4ccccc34)[C@H](c3cc4[nH]c5c(c4cc3OC)CCN3C[C@@H]4C[C@H](CC)[C@H]3[C@@]5(C(=O)OC)C4)C[C@@H]1C2C(=O)OC (some centres not stated)
EC50 (Leishmania donovani [12]): 1.68 µM

sodium antimony gluconate
Activity (Leishmania donovani [14]): 97%

Source: ChEMBL document CHEMBL5620368, “Molecular-level strategic goals and repressors in Leishmaniasis - Integrated data to accelerate target-based heterocyclic scaffolds” (Eur J Med Chem, 2023)
